{"source": "patent US9562914B2", "about": "“Microfluidic device for real-time clinical monitoring and quantitative assessment of whole blood coagulation” (President and Fellows of Harvard College, priority 2013, dated 2017)", "system": "whole human blood", "assay": "whole blood clotting time in microfluidic coagulation device (infusion or pressure pump mode)", "type": "cell-based", "details": "microchannels coated with human collagen I at 100 μg/ml; device of FIG. 13A; uncoated PDMS 15-60 minutes", "protocol": "As discussed below, in the test configuration, 2-5 ml of human whole blood was pumped through an infusion or pressure pump followed by an inline pressure sensor that connected to ports 120a, 120b of the microfluidic device 100 via appropriate medical grade tubing (e.g., 1.6 mm ID). In infusion mode, clot formation leads to an increase in pressure, whereas in constant pressure mode, the flow rate drops with respect to time. […] The characteristic constants of these models indicate clotting times at two stages—when the clot formation is accelerating and when the clot has completely occluded the channel. […] Fluorescence microscopy of fibrinogen and platelets allow real-time monitoring of fibrin formation and platelet aggregation simultaneously.\nIn the testing conducted with the microfluidic device 100 of FIG. 1, fresh human blood stored in a 5 ml syringe (slip-tip Plastipak, BD, Franklin Lakes, N.J.) was pushed via syringe pump (PHD Ultra CP, Harvard Apparatus, Holliston, Mass.) through an inline, disposable pressure sensor (PREPS-N-000, PendoTECH, Princeton, N.J.) followed by the PDMS device within 15 minutes of blood draw. […] In the test setup, the imaging device 130 used was a fluorescence imaging configured Carl Zeiss Axio 3 Observer microscope (10×, NA 0.3 objective), but other imaging devices may be readily used in accord with the present concepts. […]"}
{"substance": "human collagen I: human collagen I coated on the microchannels at a concentration of 100 μg/ml", "values": [{"measurement": "clotting time with collagen-coated microchannels", "result": "2 to 20", "unit": "min"}]}
